Values of other authors in patent publication EP4643845A1, “COSMETIC COMPOSITION” (Shiseido Company, Ltd., priority 2022, dated 2024).
*1 amine or outer side, *2 acyl side, *3 side chain or, on linkers, in order; H or OH if unused. Where a SMILES comes first, the peptide text is derived from it. Bridges are numbered along the chain shown (N, C = ends). X1 = CC(C)CCCCCCCCCC(CC(=O)[*:1])O[*:2]

Settings: according to relevant reports

## CC(C)CCCCCCCCCC1CC(=O)NC(CCC(=O)O)C(=O)NC(CC(C)C)C(=O)NC(CC(C)C)C(=O)NC(C(C)C)C(=O)NC(CC(=O)O)C(=O)NC(CC(C)C)C(=O)NC(CC(C)C)C(=O)O1 (stereo not shown) [formula (1)] (ELLVDLL; linker N-C via X1; configuration not given here)
  critical micelle concentration (CMC): 0.0003 % (mass fraction)
